Assay results taken from patent publication US5079257A, “Indoloquinone compounds” (priority 1986, dated 1992).
In brackets after ≈: the same amount, converted by molar mass. Like-named read-outs stand apart in the source and are kept apart here.

How the values were obtained:
[1] = test system: R-1 cells (Rhabdomyosarcoma Cells); assay: R-1 activity (bioliquid assay), cytotoxicity; assay type: cell-based; settings: Rhabdomyosarcoma cell
Procedure, shortened: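 Rhabdomyosarcoma R-1 cells (~10^6 per dish) in Dulbecco's medium with 10% FCS were exposed to drug solution, which was then replaced by fresh medium. Cells were trypsinized after 48 hours and counted electronically.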

L1210 cells [2] = assay: L1210 activity (bioliquid assay), cytotoxicity; assay type: cell-based; settings: Mus musculus
Procedure, shortened: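 Suspension culture in RPMI with 15% FCS and 2-mercaptoethanol (60 μmol). Continuous compound exposure for 48 hours at 37° C under 5% CO2 in humidified air. Cell numbers then counted on an electronic microcell counter.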

L1210 cells [3] = assay: Lowest active dose (L1210; bioliquid assay); assay type: cell-based; settings: Mus musculus
Description: The indoloquinones II (formula II) have been tested in respect of their cytotoxic activity against L1210 cells and R-1 cells (Rhabdomyosarcoma Cells) in a bioliquid assay at the department of oncology of the Free University of Amsterdam (Table I). In addition to this seven compounds (E.O. 1, E.O. 2, E.O. 4, E.O. 7, E.O. 9, E.O. 16 and E.O. 17) have been tested on L1210 activity in a clonogenic assay at TNO, Rijswijk. Further, the lowest active doses of the compounds E.O. 1, E.O. 2, E.O. 4 and E.O. 9 have been determined at TNO Rijswijk, according to the method described by Lamberts et al. [Oncology, 40, 301 (1983)]. (Table II). Eight indoloquinones (E.O. 1, E.O. 2, E.O. 4, E.O. 4A, E.O. 8, E.O. 9, E.O. 33 and E.O. 35) have been tested in a panel of five human tumour lines (TNO Rijswijk; Table III). From the latter group three indoloquinones (E.O. 1, E.O. 4 and E.O. 9) have been selected for a cytotoxicity study, involving five slowly growing human tumour lines (University of Freiburg; Table IV).
The lowest active doses for the compounds E.O. 1, E.O. 2, E.O. 4 and E.O. 9 were determined according to the method described by Lamberts et al. [Oncology, 40, 301 (1983)]. In this method, L1210 cells were grown in a series of wells in a culture medium and in the presence of the compound to be tested, as in the determination of L1210 activity in a bioliquid assay reported above, but the compound was present in respective wells in a different concentration, the concentrations extending over an appropriate range. After a suitable incubation period, the lowest active dose for the compound in question was determined by comparing the diameter of each of the precipitation spots with that of a control containing only the culture and the cell suspension, a smaller diameter indicating growth inhibition (Table II).

[4] = test system: T 24 cells; bladder carcinoma; assay: In vitro panel of human tumour lines (TNO): T 24; assay type: cell-based; settings: about 72 hours; also: key: -: no inhibition of cell growth; +: total cell-kill
Procedure, shortened: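 Cells (5×10^4/ml, Dulbecco's medium + 10% FCS) grafted 48 h, then continuously exposed to compound (Hanks'/ethanol, final ethanol <1%) for about 72 h at 37°C, 10% CO2. Crystal violet fixation/staining; inhibiting concentration estimated qualitatively over increasing doses.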

WiDr cells; colon tumour = assay: In vitro panel of human tumour lines (TNO): WiDr; assay type: cell-based; settings: about 72 hours; also: key: -: no inhibition of cell growth; +: total cell-kill
Procedure, shortened: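 Cells in Dulbecco's medium with 10% foetal calf serum were seeded 48 h, then exposed continuously to increasing compound concentrations (final ethanol <1%) for about 72 h at 37° in 10% CO2. Crystal violet staining after fixation; inhibiting concentration estimated qualitatively.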

in vivo = assay: in vivo; set-up: species or system mice; settings: mouse, IP, single dose, suspension in carboxymethyl cellulose (2%)
Protocol: The acute toxicity experiments were carried out with male C5 Black/Rij X CBA/Rij Fl hybrid mice at TNO, Rijswijk. The drugs were administrated IP as suspensions in carboxymethyl cellulose (2%) as a single dose at the first day.

P 388 tumour cells = assay: In vivo P388 experiments (Brussels); set-up: species or system mice; settings: for MAX T/C: days 1 to 5
Protocol: These experiments were carried out at the Institute Jules Bordet, Brussels, on CDF, female mice. The mice were inoculated intraperitoneally (IP) with 1×10^6 P 388 tumour cells. After 24 hours, the compounds were administrated as suspensions in "Tween-80" or using saline as vehicle. Six mice were used at each dose of the compound, given on days 1 to 5 and eighteen control mice were injected with saline.

L1210 = assay: In vivo L1210 experiments (TNO Rijswijk); set-up: species or system mice
Protocol: The in vivo L1210 experiments were carried out in male Balb/c X DBA.2 Fl hybrid mice at TNO, Rijswijk.
In these experiments also, the drugs were administered IP as suspensions in carboxymethyl cellulose […] as a single dose at the first day.

[5] = Table I, bioliquid assay, read-out: ID-50 R-1
[6] = L1210, Table I, bioliquid assay, 48 hours, read-out: ID-50 L1210
[7] = L1210, bioliquid assay, duplicate experiment, read-out: LAD 2 (lowest active dose)
[8] = L1210, bioliquid assay, read-out: LAD 1 (lowest active dose)

Row | SMILES | IC50 [1, 5] [µg/mL] | IC50 (L1210 cells [2]; [6]) [µg/mL] | minimal effective concentration (L1210 cells [3]; [7]) [µg/mL] | minimal effective concentration (L1210 cells [3]; [8]) [µg/mL] | in vitro activity score, T 24 ([4]; 0.01 μg/ml) | in vitro activity score, T 24 ([4]; 0.1 μg/ml) | in vitro activity score, WiDr (WiDr cells; colon tumour; 0.01 μg/ml) | in vitro activity score, WiDr (WiDr cells; colon tumour; 0.1 μg/ml) | in vitro activity score, WiDr (WiDr cells; colon tumour; 1.0 μg/ml) | in vitro activity score, WiDr (WiDr cells; colon tumour; 10 μg/ml) | LD50 (in vivo) [mg/kg] | in vitro activity score, T 24 ([4]; 1.0 μg/ml) | in vitro activity score, T 24 ([4]; 10 μg/ml) | MAX T/C (P 388 tumour cells; 10 mg/kg) [%] | further results
1 | COC1=CC(=O)c2c(c(COC(C)=O)c(/C=C/COC(C)=O)n2C)C1=O [E.O. 1, 3-Acetoxymethyl-5-methoxy-1-methyl-2-[1H-indole-4,7-dione]prop-β-en-α-yl acetate] | 2.3 | 2.3 | 1.02 to 2.05 | 1.02 to 2.05 | - | - | - | - | - | + | 10 to 30 |  |  |  | IC50 ([1]; Table VI, read-out: ID-50 R-1): 0.3 µg/mL; MAX T/C (P 388 tumour cells; 75 mg/kg): 105%
2 | COC(=O)OC/C=C/c1c(COC(=O)OC)c2c(n1C)C(=O)C=C(OC)C2=O [E.O. 2, Methyl 5-methoxy-3-methoxycarbonyloxymethyl-1-methyl-2-[1H-indole-4,7 dione]prop-β-en-α-yl carbonate] | 0.4 (≈ 1.02 µM) | 0.5 (≈ 1.27 µM) | 1.02 to 2.05 | 1.02 to 2.05 | - | - | - | - | - | + | 30 to 100 | - | + | 120 | % T/C (L1210; 80 mg/kg IP single dose): tox.; response vs control in vivo at 30 mg/kg (L1210; Mus musculus, L1210, 30 mg/kg IP single dose, read-out: % T/C): 100%; response vs control in vivo at 40 mg/kg (L1210; Mus musculus, L1210, 40 mg/kg IP single dose, read-out: % T/C): 113%; response vs control in vivo at 60 mg/kg (L1210; Mus musculus, L1210, 60 mg/kg IP single dose, read-out: % T/C): 100%
3 | CC(=O)OC/C=C/c1c(COC(C)=O)c2c(n1C)C(=O)C=C(N1CC1)C2=O [E.O. 4, 3-Acetoxymethyl-5-aziridino-1-methyl-2-[1H-indole-4,7-dione]prop-β-en-α-yl acetate] |  |  |  |  | - | - | - | - |  | + |  | + | + | 135 | IC50 ([1]; read-out: ID-50 R-1, Table VIII): 0.025 µg/mL; IC50 (L1210 cells [2]; L1210, 48 h, read-out: ID-50 L1210, Table VIII): 1.6 µg/mL; minimal effective concentration (L1210 cells [3]; L1210, read-out: LAD 1 (lowest active dose)): 0.032 to 0.064 µg/mL; minimal effective concentration (L1210 cells [3]; L1210, read-out: LAD 2 (lowest active dose)): 0.064 µg/mL; % T/C (L1210; 15 mg/kg IP single dose): tox.; % T/C (L1210; 25, 30 mg/kg IP single dose): tox.; response vs control in vivo at 20 mg/kg (L1210; Mus musculus, L1210, ip, read-out: % T/C): 100%; T/C at the optimal dose (P 388 tumour cells; optimal dose): ~130%
4 | Cn1c(/C=C/CO)c(CO)c2c1C(=O)C=C(N1CC1)C2=O [E.O. 9, 5-Aziridino-3-hydroxymethyl-1-methyl-2-[1H-indole-4,7-dione]prop-β-en-α-ol] | 0.003 (≈ 0.0104 µM) |  | 1.02 | 0.512 to 1.02 | - | + | - | + | + | + | 10 | + | + |  | IC50 ([1]; Table VIII, read-out: ID-50 R-1): 0.0034 µg/mL (≈ 0.0118 µM); IC50 (L1210 cells [2]; L1210, 48 h, Table VIII, read-out: ID-50 L1210): 0.46 µg/mL (≈ 1.6 µM); % T/C (L1210; 6, 8, 10 mg/kg IP single dose): tox.; response vs control in vivo at 2 mg/kg (L1210; Mus musculus, L1210, 2 mg/kg IP single dose, read-out: % T/C): 144%; response vs control in vivo at 4 mg/kg (L1210; Mus musculus, L1210, 4 mg/kg IP single dose, read-out: % T/C): 100%; MAX T/C (P 388 tumour cells; 1.5 mg/kg): 106%
